Values after ≈ are worked out from the molar mass of the structure shown. Values belong to the compound of their own block, whether it stands above or below them.
Key:
MCF7 = assay: Antiproliferative activity against human MCF7 cells; type: functional, cell-based
CCRF-CEM = assay: Antiproliferative activity against human CEM cells assessed as reduction in cell viability by MTT assay; type: functional, cell-based
K562 = assay: Antiproliferative activity against human K562 cells assessed as reduction in cell viability by MTT assay; type: functional, cell-based
Plasmodium falciparum [1] = assay: Antiplasmodial activity against Plasmodium falciparum assessed as reduction in parasite growth; type: functional, organism-based
Plasmodium falciparum [2] = assay: In vivo antiplasmodial activity against Plasmodium falciparum infected in mouse model; type: functional
[3] = Inhibition of FTase (unknown origin) by Perkin elmer analysis; set-up: species or system Homo sapiens
Rattus norvegicus [4] = assay: Anti-hyperlipidemic activity in rat assessed as reduction in total cholesterol level at 15 mg/kg, po measured after 18 hrs; type: functional; set-up: scale not given: the % may be the effect or the level left
Rattus norvegicus [5] = assay: Anti-hyperlipidemic activity in rat assessed as reduction in triglyceride level at 15 mg/kg, po measured after 18 hrs; type: functional; set-up: scale not given: the % may be the effect or the level left
[6] = test system: Human immunodeficiency virus 1; assay: Antiviral activity against HIV-1; type: functional, organism-based
[7] = Anti-inflammatory activity in human PBMC cells assessed as inhibition of LPS-induced […] production; type: functional, cell-based
[8] = Anti-inflammatory activity in human PBMC cells assessed as inhibition of LPS-induced TNF-alpha production; type: functional, cell-based
Leishmania = assay: Antileishmanial activity against Leishmania assessed as reduction in parasite growth; type: functional, organism-based
[9] = test system: Human immunodeficiency virus 1; assay: Antiviral activity against HIV-1 P225H mutant; type: functional, organism-based
[10] = test system: Human immunodeficiency virus 1; assay: Antiviral activity against HIV-1 L100I mutant; type: functional, organism-based
[11] = test system: Human immunodeficiency virus 1; assay: Antiviral activity against HIV-1 Y181C mutant; type: functional, organism-based
[12] = test system: Human immunodeficiency virus 1; assay: Antiviral activity against HIV-1 Y188C mutant; type: functional, organism-based
[13] = test system: Human immunodeficiency virus 1; assay: Antiviral activity against HIV-1 harboring K103N/P225H double mutant; type: functional, organism-based
[14] = test system: Human immunodeficiency virus 1; assay: Antiviral activity against HIV-1 G190A mutant; type: functional, organism-based
[15] = test system: Human immunodeficiency virus 1; assay: Antiviral activity against HIV-1 harboring K103N/Y181C double mutant; type: functional, organism-based
[16] = test system: Human immunodeficiency virus 1; assay: Antiviral activity against HIV-1 harboring K103N/L100I double mutant; type: functional, organism-based
[17] = test system: Human immunodeficiency virus 1; assay: Antiviral activity against HIV-1 V108I mutant; type: functional, organism-based
[18] = test system: Human immunodeficiency virus 1; assay: Antiviral activity against HIV-1 assessed as reduction in virus-induced cytopathic effect; type: functional, organism-based
[19] = test system: Human immunodeficiency virus 1; assay: Antiviral activity against HIV-1 V106I mutant; type: functional, organism-based
[20] = test system: Human immunodeficiency virus 1; assay: Antiviral activity against HIV-1 P236L mutant; type: functional, organism-based
[21] = test system: Human immunodeficiency virus 1; assay: Antiviral activity against HIV-1 K103N mutant; type: functional, organism-based
[22] = test system: Human immunodeficiency virus 1; assay: Antiviral activity against HIV-1 K101E mutant; type: functional, organism-based
[23] = test system: Human immunodeficiency virus 1; assay: Antiviral activity against HIV-1 E138K mutant; type: functional, organism-based
[24] = test system: Human immunodeficiency virus 1; assay: Antiviral activity against HIV-1 harboring V108I/Y181C double mutant; type: functional, organism-based
[25] = test system: Human immunodeficiency virus 1; assay: Antiviral activity against HIV-1 harboring K103N/V108I double mutant; type: functional, organism-based
Ehrlich = assay: Antiproliferative activity against mouse EAC cell expressing VEGF-A by MTT assay; type: functional, cell-based
[26] = Antiproliferative activity against mouse DLA cell expressing VEGF-A by MTT assay; type: functional, cell-based
[27] = target: Mitogen-activated protein kinase 14 (Homo sapiens, UniProt Q16539); assay: Inhibition of P38alphaMAPK (unknown origin)
[28] = target: T1, Glutathione S-transferase A1 (Homo sapiens, UniProt P08263); assay: Inhibition of recombinant human GSTA1-1
T1 sequence (P08263 whole entry): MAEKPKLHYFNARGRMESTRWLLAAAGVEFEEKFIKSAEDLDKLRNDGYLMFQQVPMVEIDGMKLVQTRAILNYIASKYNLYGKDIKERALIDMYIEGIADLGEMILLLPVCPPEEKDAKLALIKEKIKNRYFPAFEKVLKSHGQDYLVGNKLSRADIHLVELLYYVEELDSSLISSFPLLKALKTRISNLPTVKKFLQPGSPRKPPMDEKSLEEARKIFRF

[29] = Cytotoxicity against human HUVEC cells assessed as inhibition of cell growth; type: toxicity, cell-based

Sequence of Mitogen-activated protein kinase 14 (Q16539 whole entry): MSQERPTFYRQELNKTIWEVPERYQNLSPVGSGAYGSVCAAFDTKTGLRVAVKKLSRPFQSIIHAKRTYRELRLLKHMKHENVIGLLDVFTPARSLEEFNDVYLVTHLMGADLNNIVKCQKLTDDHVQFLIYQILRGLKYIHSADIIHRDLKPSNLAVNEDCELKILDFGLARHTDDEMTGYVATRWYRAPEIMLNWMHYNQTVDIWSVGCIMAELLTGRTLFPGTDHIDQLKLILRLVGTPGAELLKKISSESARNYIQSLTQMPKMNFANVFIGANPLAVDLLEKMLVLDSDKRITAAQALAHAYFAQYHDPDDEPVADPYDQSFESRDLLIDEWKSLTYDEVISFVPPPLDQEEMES

IC50 (MCF7): 7100 nM
SMILES: Cc1cc(C(=O)c2cccc(Br)c2)ccc1OCC(=O)NNC(=O)C1CN(Cc2ccccc2)CCO1 (centres undefined)

IC50 (CCRF-CEM): 1600 nM
IC50 (K562): 1600 nM
SMILES: COc1ccc(C(=O)c2ccc(OCC(=O)N3CCC(CCCC4CCN(C(=S)c5ccc(Cl)cc5)CC4)CC3)cc2)c(OC)c1

IC50 [3]: 21 nM
SMILES: CN(C)CCN(C)C(C(=O)Nc1ccc(NC(=O)/C=C/c2ccc(-c3ccc([N+](=O)[O-])cc3)o2)cc1C(=O)c1ccccc1)c1ccccc1 (centres undefined)
IC50 (Plasmodium falciparum [1]): 32 nM
ED50 (Plasmodium falciparum [2]): 16 mg/kg

SMILES: O=C(c1ccccc1)c1cccc(NC(=O)c2ccc(-c3cccc(O)c3)o2)c1
Activity (Rattus norvegicus [4]): 88%
Activity (Rattus norvegicus [5]): 84%

EC50 [6]: 4.2 nM
SMILES: Cc1cccc(C(=O)c2cc(Cl)ccc2OCC(=O)Nc2ccc([N+](=O)[O-])cc2C)c1

IC50 ([7]; Homo sapiens, PBMC): 14 nM
IC50 [8]: 4 nM
SMILES: Cc1cc(F)ccc1Nc1ccc(C(=O)c2ccccc2C)c(Cl)c1

IC50 (CCRF-CEM): 1600 nM
IC50 (K562): 1600 nM
SMILES: COc1ccc(C(=O)c2ccc(OCC(=O)N3CCC(CCCC4CCN(C(=O)c5ccc(Cl)cc5)CC4)CC3)cc2)c(OC)c1

SMILES: O=C(COc1ccc(C(=O)c2ccccc2)cc1)c1ccc(Cl)c(Cl)c1
IC50 (Leishmania): 1.19 µg/mL (≈ 3.09 µM)

SMILES: Cc1cc(OCCCS(N)(=O)=O)ccc1NC(=O)COc1ccc(Cl)cc1C(=O)c1cc(F)cc(C(F)(F)F)c1
IC50 [9]: < 10 nM
IC50 [10]: < 10 nM
IC50 [11]: < 10 nM
IC50 [12]: < 10 nM
IC50 [13]: < 10 nM
IC50 [14]: < 10 nM
IC50 [15]: < 10 nM
IC50 [16]: < 10 nM
IC50 [17]: < 10 nM
IC50 [18]: < 2 nM
IC50 [19]: < 10 nM
IC50 [20]: < 10 nM
IC50 [21]: < 10 nM
IC50 [22]: < 10 nM
IC50 [23]: < 10 nM
IC50 [24]: < 10 nM
IC50 [25]: < 10 nM

SMILES: Cc1cc(S(N)(=O)=O)ccc1NC(=O)COc1ccc(Cl)cc1C(=O)c1cccc(C#N)c1
IC50 [9]: < 10 nM
IC50 [10]: < 10 nM
IC50 [11]: < 10 nM
IC50 [12]: < 10 nM
IC50 [13]: < 10 nM
IC50 [14]: < 10 nM
IC50 [15]: < 10 nM
IC50 [16]: < 10 nM
IC50 [17]: < 10 nM
IC50 [18]: < 2 nM
IC50 [19]: < 10 nM
IC50 [20]: < 10 nM
IC50 [21]: < 10 nM
IC50 [22]: < 10 nM
IC50 [23]: < 10 nM
IC50 [24]: < 10 nM
IC50 [25]: < 10 nM

SMILES: COc1ccc(-c2csc(NC(=O)COc3ccc(C(=O)c4ccc(F)cc4C)cc3C)n2)cc1
IC50 (Ehrlich): 5000 nM
IC50 [26]: 5000 nM

IC50 [27]: 27 nM
SMILES: Cc1cc(C(=O)NC2CC2)ccc1-c1ccc(C(=O)c2cccc(CCC(O)CO)c2)cc1 (centres undefined)

IC50 ([7]; Homo sapiens, PBMC): 14 nM
IC50 [8]: 4 nM
SMILES: Cc1ccccc1C(=O)c1ccc(Nc2ccccc2N)cc1Cl

IC50 (MCF7): 9300 nM
SMILES: Cc1cccc(C(=O)c2ccc(OCC(=O)NNC(=O)C3CN(Cc4ccccc4)CCO3)c(C)c2)c1 (centres undefined)

IC50 [28]: 180 nM
SMILES: O=C(c1ccccc1O)c1cc(Br)ccc1O

IC50 [27]: 14 nM
SMILES: COc1ccc(C#CC(C)(C)N)cc1C(=O)c1ccc(Nc2ccc(F)cc2F)cc1

IC50 ([7]; Homo sapiens, PBMC): 14 nM
IC50 [8]: 4 nM
SMILES: Cc1ccccc1C(=O)c1ccc(Nc2ccc(Br)cc2N)cc1Cl

EC50 [6]: 2.9 nM
SMILES: Cc1cc(C)cc(C(=O)c2cc(Cl)ccc2OC(C)C(=O)Nc2ccc(S(N)(=O)=O)cc2)c1 (centres undefined)

SMILES: Cc1cc(S(N)(=O)=O)ccc1NC(=O)COc1ccc(Cl)cc1C(=O)c1cc(F)cc(C(F)(F)F)c1
IC50 [9]: < 10 nM
IC50 [10]: < 10 nM
IC50 [11]: < 10 nM
IC50 [12]: < 10 nM
IC50 [13]: < 10 nM
IC50 [14]: < 10 nM
IC50 [15]: < 10 nM
IC50 [16]: < 10 nM
IC50 [17]: < 10 nM
IC50 [18]: < 2 nM
IC50 [19]: < 10 nM
IC50 [20]: < 10 nM
IC50 [21]: < 10 nM
IC50 [22]: < 10 nM
IC50 [23]: < 10 nM
IC50 [24]: < 10 nM
IC50 [25]: < 10 nM

SMILES: CC(C)(C)c1[nH]cnc1/C=c1\[nH]c(=O)/c(=C/c2ccccc2)[nH]c1=O [PLINABULIN]
IC50 [29]: 10 nM

IC50 [7]: 226 nM
IC50 [8]: 159 nM
SMILES: Nc1ccccc1Nc1ccc(C(=O)c2ccccc2)cc1

Reference: ChEMBL document CHEMBL5260792, “Benzophenone: a ubiquitous scaffold in medicinal chemistry” (Medchemcomm, 2018)
